Molecular target: T1, DPP4 (Homo sapiens, UniProt P27487)
T1 construct: from tissue; host or cells: human heparinized plasma
Assay: DPP4 activity by MSIA: substrate conversion in human heparinized plasma spiked with recombinant DPP4 substrate peptide and inhibitor
Format: biochemical
Description: MSIA is a method by which sample purification and preparation occurs essentially simultaneously with sample aliquot and delivery. More specifically, a pipette tip, into which a specific volume of a clinical sample, human or animal, is drawn, contains an affinity reagent for selective preparation and immuno-affinity purification of the sample for subsequent direct mass spectrometer analysis; i.e., no intervening purification steps are performed. As shown schematically in FIG. 1, a clinical sample is drawn into a pipette tip containing an exogenous synthetic peptide substrate. The clinical sample and the exogenous peptide substrate are incubated to effect binding of the exogenous peptide substrate to a specific enzyme that is present in the clinical sample. After washes with buffer and water, the eluant is used for subsequent MS analysis. In this elution process, the eluate is dispensed into a microtiter plate for LC/MS application, directly into a LC/MS, or onto a target for MS insertion. Regardless of the MS technique applied, the eluant contained the exogenous peptide substrates, both the parent exogenous peptide substrate and the cleaved degraded product that was produced based on the activity of the enzyme contained in the clinical sample.
An exogenous synthetic peptide that is a substrate for the enzyme to be assessed is introduced into a clinical specimen, e.g., blood, urine, plasma, cerebrospinal fluid, lymphatic fluid, etc., i.e., the clinical sample is spiked or doped with the exogenous synthetic peptide substrate. For example, if the enzyme to be assessed is DPP4, the sample may be spiked with an exogenous peptide substrate for DPP4, e.g., recombinant GLP1, natriuretic peptide, etc. The exogenous synthetic peptide substrate that is added to the clinical sample in vitro is termed the parent substrate. The sample is then analyzed by MS, or is incubated for a set period of time before MS analysis. Incubation may be for any desired time period, and at any desired temperature, e.g., ambient temperature 19° C.-22° C., or at another desirable temperature, e.g., 37° C. Enzyme that is present in the clinical sample proteolytically cleaves the exogenous parent synthetic peptide substrate into a smaller fragment. The exogenous synthetic peptide substrates, both the parent (unreacted) and the cleaved (reacted) degraded product, are the targets that are monitored by subsequent MSIA. The method may be summarized as follows:
In one embodiment, a MS measurement of the exogenous synthetic peptide substrate in the sample (step (b)) is performed at a single time point, e.g., 15 min. In one embodiment, a MS measurement of the exogenous synthetic peptide substrate in the sample (step (b)) is performed over a time course, e.g., from 100% substrate to decreased or essentially depleted substrate. The time course may be performed utilizing sequential aliquot removal from the same clinical sample, or may be performed on multiple samples assayed in parallel. In all embodiments, the clinical samples are analyzed using MSIA, which selectively targets the substrate peptide, both reacted and non-reacted. MS detection allows for differentiation of the two forms, i.e., the reacted (cleaved, degraded) form of the substrate peptide, and unreacted parent form of the substrate peptide. It thus provides a method of analyzing the activity of an enzyme in a biological system.
In embodiments, clinical samples were treated with various inhibitors to determine the modulation, if any, of the endogenous enzyme activity. For example, if DPP4 was the enzyme whose activity was to be assessed, inhibitors were used that were known or speculated to inhibit DPP4 activity. Concentration studies were also performed (data not shown).
The following results were obtained with the leupeptin inhibitor:
The following results were obtained with the AEBSF inhibitor: […]

[1] = Human Plasma 1, 1 mM leupeptin, 0 min
[2] = Human Plasma 1, 1 mM leupeptin, 15 min
[3] = Human Plasma 1, 1 mM leupeptin, 30 min
[4] = Human Plasma 1, 1 mM leupeptin, 45 min
[5] = Human Plasma 1, 1 mM leupeptin, 60 min
[6] = Human Plasma 1, 1 mM leupeptin, 75 min
[7] = Human Plasma 1, 5 mM AEBSF, 0 min
[8] = Human Plasma 1, 5 mM AEBSF, 15 min
[9] = Human Plasma 1, 5 mM AEBSF, 30 min
[10] = Human Plasma 1, 5 mM AEBSF, 45 min
[11] = Human Plasma 1, 5 mM AEBSF, 60 min
[12] = Human Plasma 1, 5 mM AEBSF, 75 min

T1 sequence (P27487 39-766 limits assumed): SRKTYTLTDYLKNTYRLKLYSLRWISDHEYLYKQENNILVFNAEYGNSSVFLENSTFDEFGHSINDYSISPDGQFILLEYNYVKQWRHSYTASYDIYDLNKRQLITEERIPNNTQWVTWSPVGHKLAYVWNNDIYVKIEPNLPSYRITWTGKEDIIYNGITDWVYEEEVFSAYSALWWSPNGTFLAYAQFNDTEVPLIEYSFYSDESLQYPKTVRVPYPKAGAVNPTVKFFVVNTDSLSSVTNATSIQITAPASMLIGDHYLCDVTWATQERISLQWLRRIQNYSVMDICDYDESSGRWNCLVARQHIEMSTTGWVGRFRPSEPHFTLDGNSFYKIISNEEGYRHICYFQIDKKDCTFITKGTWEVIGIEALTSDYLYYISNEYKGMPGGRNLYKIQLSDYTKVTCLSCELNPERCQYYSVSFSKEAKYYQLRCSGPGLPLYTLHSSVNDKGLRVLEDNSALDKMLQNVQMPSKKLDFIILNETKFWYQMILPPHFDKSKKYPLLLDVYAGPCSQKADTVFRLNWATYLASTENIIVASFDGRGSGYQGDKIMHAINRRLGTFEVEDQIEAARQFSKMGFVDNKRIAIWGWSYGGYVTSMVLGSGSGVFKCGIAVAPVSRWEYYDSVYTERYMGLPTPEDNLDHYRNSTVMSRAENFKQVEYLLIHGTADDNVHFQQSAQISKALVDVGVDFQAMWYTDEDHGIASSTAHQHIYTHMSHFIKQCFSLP

SMILES: CC(=O)N[C@@H](CC(C)C)C(=O)N[C@@H](CC(C)C)C(=O)N[C@H](C=O)CCCNC(=N)N [leupeptin]
- % Product [1]: 0%
- % Substrate [1]: 100%
- % Product [2]: 52.6%
- % Substrate [2]: 47.4%
- % Product [3]: 77.8%
- % Substrate [3]: 22.2%
- % Product [4]: 85.1%
- % Substrate [4]: 14.9%
- % Product [5]: 87.9%
- % Substrate [5]: 12.1%
- % Product [6]: 90.2%
- % Substrate [6]: 9.8%

SMILES: NCCc1ccc(S(=O)(=O)F)cc1 [AEBSF]
- % Product [7]: 0%
- % Substrate [7]: 100%
- % Product [8]: 11.7%
- % Substrate [8]: 88.3%
- % Product [9]: 17.4%
- % Substrate [9]: 82.6%
- % Product [10]: 22.2%
- % Substrate [10]: 77.8%
- % Product [11]: 24.3%
- % Substrate [11]: 75.7%
- % Product [12]: 24.8%
- % Substrate [12]: 75.2%
